Test results reported in ChEMBL document CHEMBL4420076, “Amylin and calcitonin receptor agonist” (2017).
Numbered stars: 1 amine (or outer) side, 2 acyl side, 3 side chain; on linkers, the order of the positions; unused ones are H or OH. Peptide text beside a SMILES is read from it. * marks the point of attachment. C18 diacid = O=C(O)CCCCCCCCCCCCCCCCC(=O)*; γGlu = O=C(O)[C@H](CCC(=O)[*:2])N[*:1]

How the values were obtained:
Assay type in all cases: physicochemical
[1] = Stability in pH 7.5 buffer assessed as compound recovery at 1 uM by Thioflavin T based fluorescence assay; conditions: read-out: Drug recovery
[2] = Solubility in 100 mM bistrispropane buffer at pH 6.0 incubated for 18 hrs by UPLC analysis
[3] = Solubility in 100 mM glycylglycine buffer at pH 5.0 incubated for 18 hrs by UPLC analysis
[4] = Solubility in 100 mM bistrispropane buffer at pH 7.5 incubated for 18 hrs by UPLC analysis
[5] = Solubility in 100 mM bistrispropane buffer at pH 6.5 incubated for 18 hrs by UPLC analysis
[6] = Solubility in 100 mM glycylglycine buffer at pH 3.0 incubated for 18 hrs by UPLC analysis
[7] = Solubility in 100 mM bistrispropane buffer at pH 7.0 incubated for 18 hrs by UPLC analysis
[8] = Stability in pH 7.5 buffer assessed as lag time for fibril formation at 1 uM by Thioflavin T based fluorescence assay; conditions: pH 7.5, 1 µM
[9] = Solubility in 100 mM glycylglycine buffer at pH 4.0 incubated for 18 hrs by UPLC analysis
[10] = Solubility in 100 mM bistrispropane buffer at pH 8.0 incubated for 18 hrs by UPLC analysis

Row | SMILES | remaining at 1 µM [1] [%] | solubility at 18 h [2] [µM] | solubility at 18 h [3] [µM] | solubility at 18 h [4] [µM] | solubility at 18 h [5] [µM] | solubility at 18 h [6] [µM] | solubility at 18 h [7] [µM] | Time [8] [h] | solubility at 18 h [9] [µM] | solubility at 18 h [10] [µM]
1 | CC(C)C[C@H](NC(=O)[C@H](C)NC(=O)[C@H](C)NC(=O)[C@@H](NC(=O)[C@H](CO)NC(=O)[C@H](CC(C)C)NC(=O)[C@H](CCC(=O)O)NC(=O)[C@H](CO)NC(=O)[C@H](C)N)[C@@H](C)O)C(=O)NCC(=O)N[C@@H](CCCNC(=N)N)C(=O)N[C@@H](CC(C)C)C(=O)N[C@@H](CO)C(=O)N[C@@H](C)C(=O)N[C@@H](CCC(=O)O)C(=O)N[C@@H](CC(C)C)C(=O)N[C@@H](Cc1cnc[nH]1)C(=O)N[C@@H](CCC(=O)O)C(=O)N[C@@H](CC(C)C)C(=O)N[C@@H](C)C(=O)N[C@H](C(=O)N[C@@H](CC(C)C)C(=O)N1CCC[C@H]1C(=O)N[C@@H](CCCNC(=N)N)C(=O)N[C@H](C(=O)N[C@@H](CCCCNC(=O)CC[C@H](NC(=O)CCCCCCCCCCCCCCCCCCC(=O)O)C(=O)O)C(=O)N[C@H](C(=O)NCC(=O)N[C@@H](CO)C(=O)NCC(=O)N[C@@H](CO)C(=O)N1CCC[C@H]1C(N)=O)[C@@H](C)O)[C@@H](C)O)[C@@H](C)O | 94 | ≥ 200 | ≥ 200 | ≥ 200 | ≥ 200 | ≥ 200 | ≥ 200 | > 45 | ≥ 200 | ≥ 200
2 | CC(C)C[C@H](NC(=O)[C@H](C)NC(=O)[C@H](C)NC(=O)[C@@H](NC(=O)[C@H](CO)NC(=O)[C@H](CC(C)C)NC(=O)[C@H](CCC(=O)O)NC(=O)[C@H](CO)NC(=O)[C@H](C)NC(=O)CC[C@H](NC(=O)CCCCCCCCCCCCCCCCC(=O)O)C(=O)O)[C@@H](C)O)C(=O)NCC(=O)N[C@@H](CCCNC(=N)N)C(=O)N[C@@H](CC(C)C)C(=O)N[C@@H](CO)C(=O)N[C@@H](C)C(=O)N[C@@H](CCC(=O)O)C(=O)N[C@@H](CC(C)C)C(=O)N[C@@H](Cc1c[nH]cn1)C(=O)N[C@@H](CCC(=O)O)C(=O)N[C@@H](CC(C)C)C(=O)N[C@@H](C)C(=O)N[C@H](C(=O)N[C@@H](Cc1ccc(O)cc1)C(=O)N1CCC[C@H]1C(=O)N[C@@H](CCCNC(=N)N)C(=O)N[C@H](C(=O)N[C@@H](CCC(=O)O)C(=O)N[C@H](C(=O)NCC(=O)N[C@@H](CO)C(=O)NCC(=O)N[C@@H](CO)C(=O)N1CCC[C@H]1C(N)=O)[C@@H](C)O)[C@@H](C)O)[C@@H](C)O ({C18 diacid-γGlu}-ASELSTAALGRLSAELHELATYPRTETGSGSP-NH2) | 100 |  |  |  |  |  |  | > 45 |  | 
